In brackets after ≈: the same amount, converted by molar mass. Entries after “also recorded” stand apart in the source; their conditions may differ. Like-named read-outs stand apart in the source and are kept apart here.
How the values were obtained:
[1] = system: Enterococcus faecium VANS 144754; experiment: Antibacterial MIC assay against E. faecium; format: cell-based
[2] = system: Neisseria gonorrhoeae ATCC49226; experiment: Antibacterial MIC assay against N. gonorrhoeae; format: cell-based
[3] = system: Enterococcus faecalis VANS 144492; experiment: Antibacterial MIC assay against E. faecalis; format: cell-based
[4] = in vitro; settings: human
[5] = system: Mycobacterium tuberculosis H37Ra (ATCC25177); experiment: Antibacterial MIC assay against M. tuberculosis H37Ra; format: cell-based; settings: lowest concentration inhibiting ≥90% of growth
[6] = system: methicillin-resistant Staphylococcus aureus (MRSA) MB5393; experiment: Antibacterial MIC assay against MRSA MB5393; format: cell-based
[7] = MTT cytotoxicity assay, Hep G2; settings: human
[8] = system: human liver adenocarcinoma cell line (Hep G2); experiment: MTT cytotoxicity assay, Hep G2; settings: for cytotoxicity (in words): Hep G2, in vitro
[9] = system: zebrafish eleuthero embryos; experiment: Zebrafish eleuthero embryos toxicity assay (immersion); format: in vivo; settings: for developmental abnormalities: 25 μM, 48 h exposure, 5 dpf, representative larvae; for toxicity (lethality and sub-lethal toxicity): 3 dpf larvae, 48 h immersion, 1.6–25 μM, read at 5 dpf
Protocol: The compounds were dissolved in dimethyl sulfoxide (DMSO) and then diluted in the fish medium (Danieau) in which the 3 dpf zebrafish larvae were swimming for 48 h. The concentrations tested were 1.6, 3.13, 6.25, 12.5 and 25 μM for each of the three compounds. Vehicle-treated Control eleuthero embryos (VHC) were also treated with the same concentration of DMSO (0.5%) in fish medium to compare the possible effects of the compounds.
After the 48 h exposure, corresponding to 5 dpf larvae, the possible mortality, touch-stimulation response and developmental abnormalities were examined using a dissecting microscope coupled with a digital color camera and pictures were captured. Then, the score for the sub-lethal toxicity and lethality was determined for each fish and condition and the mean score was calculated. The assays were independently replicated three times, using 10 embryos for each condition and compound in each assay, and thus the total number of zebrafish embryos used was 480.
Each of the three compounds (3, 4 and 7) was dissolved in 100% dimethyl sulfoxide (DMSO, spectroscopy grade) and diluted in Danieau’s medium to a final concentration of 25 μΜ (0.5% DMSO), followed by ½ serial dilutions to provide five testing concentrations (1.6, 3.13, 6.25, 12.5 and 25 μM).
Next, 3 dpf zebrafish eleuthero embryos randomly selected were immersed in a 24-well plate containing the three compounds in the different testing concentrations (n = 10 larvae per well). At the same time, 10 Vehicle-treated Control eleuthero embryos (VHC) were also treated with 0.5% DMSO, in accordance with the final solvent concentration of testing compounds to compare the possible effects of the compounds. The eleuthero embryos were incubated under a 14/10 h light/dark cycle at 27–28 °C.
After the 48 h exposure, at 5 dpf, the lethality (cardiac rhythm and degraded body were used as clinical criteria) and touch-stimulation response were assessed using non-anesthetized eleuthero embryos, while the possible morphological defects were evaluated after anesthetizing the eleuthero embryos in 0.5 mM tricaine. All observations were performed using an M80 stereo microscope (Leica Microsystems, Danaher Co., Wetzlar, Germany) and pictures were captured with a Leica DFC310 FX digital color camera (Leica Microsystems, Danaher Co., Germany) and stored.
Mean score of lethality and sub-lethal toxicity per condition was calculated as follows: To each adverse effect observed (impaired motility, bad development, body curvature and swim bladder defects) a score of 1 was given (maximum 4 per larva), and a score of 6 to each dead embryo. The mean score was then calculated for all eleuthero embryos (pooled results) examined per condition, as performed before.
The results were obtained from three independent experiments, using ten larvae for each test concentration and compound. Statistical analysis was performed by using GraphPad Prism version 9.0 (GraphPad Software Inc., San Diego, CA, USA) and one-way analysis of variance (ANOVA) followed by Tukey’s multiple comparison test. The criterion for statistical significance was p < 0.05.

[10] = system: human liver adenocarcinoma cell line (Hep G2)
[11] = Enterococcus faecium, VANS144754
[12] = Neisseria gonorrhoeae, ATCC49226
[13] = Enterococcus faecalis, VANS144492
[14] = Mycobacterium tuberculosis, read-out: MIC
[15] = Enterococcus faecium, VANS144754, E. faecium VANS 144754, lowest concentration inhibiting ≥90% of growth, read-out: MIC
[16] = Neisseria gonorrhoeae, N. gonorrhoeae ATCC49226, lowest concentration inhibiting ≥90% of growth, read-out: MIC
[17] = Enterococcus faecalis, VANS144492, E. faecalis VANS 144492, lowest concentration inhibiting ≥90% of growth, read-out: MIC
[18] = Staphylococcus aureus, MRSA MB5393, lowest concentration inhibiting ≥90% of growth after overnight incubation, read-out: MIC

## CC(=O)C(C)(O)C(O)CC1CC23OC(=O)C(=C2O)OC(=O)C2(C)C(C=CC4C(OC5OC(C)C(O)C(OC6OC(C)C(OC(=O)c7c(O)ccc(Cl)c7C)C(O)C6O)C5O)C(C)CC(C)C42)C(C)C=CCC3(C)C=C1CO (stereo not shown) [Compound 1, Phocoenamicin D]
[1]; [11]
  MIC: ≥ 116 µM
[2]; [12]
  MIC: > 116 µM
[3]; [13]
  MIC: > 58 µM
[4]
  IC50: > 58.8 µM
[5]; [14]
  MIC: 58 µM (≈ 64 µg/mL)
[6]; Staphylococcus aureus, MRSA
  MIC: 58 µM (≈ 64 µg/mL)

## Cc1c(Cl)ccc(O)c1C(=O)O[C@H]1[C@H](O)[C@@H](O)[C@@H](O[C@@H]2[C@@H](O)[C@H](O[C@@H]3[C@H]4C=C[C@H]5[C@H](C)/C=C/C[C@]6(C)C=C(CO)[C@H](C[C@@H](C)O)C[C@]67OC(=O)C(=C7O)C(=O)[C@@]5(C)[C@@H]4[C@@H](C)C[C@H]3C)O[C@H](C)[C@H]2O)O[C@@H]1C [Compound 2, Phocoenamicin E]
[1]; [15]
  MIC: > 63 µM
[2]; [16]
  MIC: > 126 µM
[3]; [17]
  MIC: > 63 µM
[7]
  IC50: 21 µM
[8]
  cytotoxicity (in words): moderate activity
[5]; [14]
  MIC: 31.5 to 63 µM (≈ 32 to 64 µg/mL)
[6]; Staphylococcus aureus, MRSA
  MIC: 31.5 to 63 µM (≈ 32 to 64 µg/mL)

## CC(=O)[C@](C)(O)[C@@H](O)C[C@@H]1C[C@@]23OC(=O)C(=C2O)C(=O)[C@@]2(C)[C@H]4[C@H](C=C[C@H]2[C@H](C)/C=C/C[C@]3(C)C=C1C)[C@@H](O[C@@H]1O[C@H](C)[C@@H](O)[C@H](O[C@H]2O[C@H](C)[C@@H](OC(=O)c3c(O)ccc(Cl)c3C)[C@H](O)[C@H]2O)[C@H]1O)[C@H](C)C[C@@H]4C [Compound 3, phocoenamicin]
[1]; [15]
  MIC: 3.7 to 7.5 µM (≈ 3.97 to 8.04 µg/mL)
[2]; [16]
  MIC: > 119 µM
[3]; [17]
  MIC: 7.5 µM (≈ 8.04 µg/mL)
[9]
  developmental abnormalities: no developmental abnormalities
  toxicity (lethality and sub-lethal toxicity): no toxicity; also recorded: not to be toxic
[7]
  IC50: > 58.8 µM
[5]; [14]
  MIC: 7.5 µM (≈ 8.04 µg/mL)
[6]; [18]
  MIC: 3.7 µM (≈ 3.97 µg/mL)

## CC(=O)[C@](C)(O)[C@@H](O)C[C@@H]1C[C@@]23OC(=O)C(=C2O)C(=O)[C@@]2(C)[C@H]4[C@H](C=C[C@H]2[C@H](C)/C=C/C[C@]3(C)C=C1CO)[C@@H](O[C@@H]1O[C@H](C)[C@@H](O)[C@H](O[C@H]2O[C@H](C)[C@@H](OC(=O)c3c(O)ccc(Cl)c3C)[C@H](O)[C@H]2O)[C@H]1O)[C@H](C)C[C@@H]4C [Compound 4, phocoenamicin B]
[1]; [11]
  MIC: ≥ 58.8 µM
[2]; [12]
  MIC: > 118 µM
[3]; [13]
  MIC: > 58.8 µM
[9]
  developmental abnormalities: no developmental abnormalities
  toxicity (lethality and sub-lethal toxicity): no toxicity; also recorded: not to be toxic
[8]
  cytotoxicity (in words): moderate activity
[4]
  IC50: 17.6 µM
[5]; [14]
  MIC: 14.7 µM (≈ 16 µg/mL)
[6]; Staphylococcus aureus, MRSA
  MIC: 7.4 µM (≈ 8.05 µg/mL)

## CC(=O)[C@](C)(O)[C@@H](O)C[C@@H]1C[C@@]23OC(=O)C(=C2O)OC(=O)[C@@]2(C)[C@H]4[C@H](C=C[C@H]2[C@H](C)/C=C/C[C@]3(C)C=C1C)[C@@H](O[C@@H]1O[C@H](C)[C@@H](O)[C@H](O[C@H]2O[C@H](C)[C@@H](OC(=O)c3c(O)ccc(Cl)c3C)[C@H](O)[C@H]2O)[C@H]1O)[C@H](C)C[C@@H]4C [Compound 5, phocoenamicin C]
[1]; [15]
  MIC: > 58.8 µM
[2]; [16]
  MIC: > 58.8 µM
[3]; [17]
  MIC: > 58.8 µM
[7]
  IC50: > 58.8 µM
[5]; [14]
  MIC: 29.4 to 58.8 µM (≈ 32 to 64 µg/mL)
[6]; [18]
  MIC: 29.4 µM (≈ 32 µg/mL)

## CC1=CC2(C)CC=CC(C)C3C=CC4CC(C)CCC4C3(C)C(=O)C3=C(O)C2(CC1CC(C)O)OC3=O (stereo not shown) [Compound 6, Maklamicin B]
[1]; [15]
  MIC: 1 µM (≈ 0.509 µg/mL)
[2]; [16]
  MIC: > 252 µM
[3]; [17]
  MIC: 62.9 µM (≈ 32 µg/mL)
[4]
  IC50: > 58.8 µM
[5]; [14]
  MIC: 2 µM (≈ 1.02 µg/mL)
[6]; [18]
  MIC: 2 µM (≈ 1.02 µg/mL)

## C[C@H]1CC[C@@H]2[C@H](C=C[C@H]3[C@H](C)/C=C/C[C@]4(C)C=C(CO)[C@H](C[C@@H](C)O)C[C@]45OC(=O)C(=C5O)C(=O)[C@@]23C)C1 [Compound 7, maklamicin]
[1]; [15]
  MIC: 1 µM (≈ 0.525 µg/mL)
[2]; [16]
  MIC: > 244 µM
[3]; [17]
  MIC: 1.9 µM (≈ 0.997 µg/mL)
[9]
  toxicity (lethality and sub-lethal toxicity): no toxicity; also recorded: not to be toxic
[10]
  cytotoxicity (in words): moderate activity
[4]
  IC50: 40.2 µM
[5]; [14]
  MIC: 61 µM (≈ 32 µg/mL)
[6]; MRSA MB5393, lowest concentration inhibiting ≥90% of growth after overnight incubation, read-out: MIC
  MIC: <0.5 µM
[6]; [18]
  MIC: < 0.5 µM

## COS(C)(=O)=O [MMS, Methyl methanesulfonate, reference compound]
[8]; Hep G2, MTT, 2 mM
  cell death (positive control): 100%

## [H]/N=C(/N)N[C@H]1[C@H](O)[C@@H](O)[C@H](O[C@@H]2O[C@@H](C)[C@](O)(C=O)[C@H]2O[C@@H]2O[C@@H](CO)[C@H](O)[C@@H](O)[C@@H]2NC)[C@@H](N/C(N)=N\[H])[C@@H]1O [streptomycin, reference compound]
[5]; [14]
  MIC: 2.8 to 5.4 µM (≈ 1.63 to 3.14 µg/mL)
[5]
  MIC: 2.8–5.4 (S) μM

## CN[C@H](CC(C)C)C(=O)N[C@H]1C(=O)N[C@@H](CC(N)=O)C(=O)N[C@H]2C(=O)N[C@H]3C(=O)N[C@H](C(=O)N[C@H](C(=O)O)c4cc(O)cc(O)c4-c4cc3ccc4O)[C@H](O)c3ccc(c(Cl)c3)Oc3cc2cc(c3O[C@@H]2O[C@H](CO)[C@@H](O)[C@H](O)[C@H]2O[C@H]2C[C@](C)(N)[C@H](O)[C@H](C)O2)Oc2ccc(cc2Cl)[C@H]1O [vancomycin, reference compound]
[1]; E. faecium VANS 144754, lowest concentration inhibiting ≥90% of growth
  MIC: 1.4 (V) μM
[1]; [15]
  MIC: 1.4 µM (≈ 2.03 µg/mL)
[3]; E. faecalis VANS 144492, lowest concentration inhibiting ≥90% of growth
  MIC: 1.4 (V) μM
[3]; [17]
  MIC: 1.4 µM (≈ 2.03 µg/mL)
[6]; MRSA MB5393, lowest concentration inhibiting ≥90% of growth after overnight incubation
  MIC: 1.4 (V) μM
[6]; [18]
  MIC: 1.4 µM (≈ 2.03 µg/mL)

## penicillin [reference compound]
[2]; N. gonorrhoeae ATCC49226, lowest concentration inhibiting ≥90% of growth
  MIC: 5.6 (P) μM
